Reference: US10201536B2, “Methods and pharmaceutical compositions for the treatment of bacterial infections in patients suffering from cirrhosis” (INSERM (INSTITUT NATIONAL DE LA SANTE ET DE LA RECHERCHE …, priority 2015, dated 2019)
Residues, ends and D or L forms follow the SMILES beside them. *: point of attachment. MeOSuc = COC(=O)CCC(=O)*; CH2Cl = ClC*

Legend:
Format in all cases: cell-based
neutrophil elastase [1] = target: T1, neutrophil elastase (Homo sapiens, UniProt P08246); experiment: fMLP-induced depletion of gp91phox and p22phox in healthy PMN with elastase inhibitor; details: 100 μM 15 min before fMLP (1 μM) 45 min
T1 construct: a cell-free degranulation supernatant obtained from fMLP (1 μM, 2 min) stimulated PMN; endogenous in cells; host or cells: healthy human PMN stimulated with fMLP, or their cell-free degranulation supernatant
T1 sequence (P08246 30-267): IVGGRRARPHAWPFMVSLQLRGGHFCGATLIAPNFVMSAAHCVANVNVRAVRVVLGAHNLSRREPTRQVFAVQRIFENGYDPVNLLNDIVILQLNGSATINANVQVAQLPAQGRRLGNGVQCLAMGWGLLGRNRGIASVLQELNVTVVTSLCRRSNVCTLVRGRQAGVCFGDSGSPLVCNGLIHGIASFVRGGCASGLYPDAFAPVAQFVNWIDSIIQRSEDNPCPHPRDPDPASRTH
Description: (§1) FIG. 8. Elastase induces the degradation of gp91phox and p22phox in healthy PMN. (A and B) Western-blot analysis and densitometric quantification of gp91phox and p22phox in healthy PMN treated in the absence or presence of elastase at 0.1 and 0.5 units for 1 hour. (C and D) Western-blot analysis densitometric quantification of gp91phox and […] in healthy PMN treated in the absence or presence of the elastase inhibitor (NEI) at 100 μM for 15 min before stimulation with fMLP (1 μM) for 45 min. (E) Western-blot analysis densitometric quantification of gp91phox in healthy PMN pretreated in the absence or presence of the elastase inhibitor (NEI) at 100 μM for 15 min before incubation for 45 min with a cell-free degranulation supernatant obtained from fMLP (1 μM, 2 min) stimulated PMN. Blots are representative of 4 experiments and densitometric analyses are cumulative and expressed as percentage of the actin level. […] (F) Sensorgrams of the PMN specific binding and dissociation to the anti-gp91phox antibody (7D5) coated to the CM3 sensorchip, analysed with the Biacore X100, as a function of time. […] Data are representative of 3 independent experiments are expressed as resonance unit (RU). (G) Flow cytometry quantification of the Gp91phox expression at the surface of PMN treated or not (Control) with 0.5 unit Elastase at 4° C. […]

neutrophil elastase [2] = target: T1, neutrophil elastase; experiment: gp91phox degradation in healthy PMN by cell-free degranulation supernatant with elastase inhibitor; details: 100 μM 15 min pretreatment, 45 min supernatant
Description: as §1

elastase [3] = target: T2, elastase (Homo sapiens, UniProt P08246); experiment: NOX2 activity (superoxide production) of healthy PMN treated with plasma from cirrhotic patients, with NEI; details: 12 H, 25% plasma, 100 μM, PMA-induced superoxide
T2 construct: with plasma of healthy volunteers or cirrhotic patients, (25% plasma in 1 ml RPMI containing 5×10^6 PMN); from tissue; host or cells: plasma of cirrhotic patients, incubated with healthy human PMN
T2 sequence (P08246 30-267): T1 sequence (P08246 30-267)
Description: (§2) FIG. 9. Plasma from cirrhotic patients reduces gp91phox expression at the surface of healthy PMN and ROS production in NEI-sensitive manner. PMN were pretreated for 12 H at 37° C. with RPMI (control) or with plasma of healthy volunteers or cirrhotic patients, (25% plasma in 1 ml RPMI containing 5×10^6 PMN) either in the absence or presence of the elastase inhibitor NEI (100 μM). PMN were labelled with the anti-gp91phox FITC-coupled antibody. (A) Quantification of the number of positive cells labeled with the anti-gp91phox FITC-coupled antibody (7D5) by Flow cytometry, expressed as percentage of control values. […] (C, D) Time course production of superoxide induced by PMA by healthy PMN which were pretreated for 12 H in the absence (Buffer/RPMI) or presence of plasma from healthy volunteers and cirrhotic patients, either with or without 100 μM NEI. (E) Production of superoxide expressed as percentage of control values (mean±SEM, n=5). […]
(§3) Granulocyte elastase is released during infectious processes and has been proposed to be helpful for the diagnosis of patients with spontaneous bacterial peritonitis (Casafon et al., 1999), a major complication of the alcoholic liver cirrhosis. […] Consistent with this observation, patients' plasmas inhibited NOX2 activity of PMN measured by the cytochrome C assay (FIGS. 9C-E) and chemiluminescence.

elastase [4] = target: T2, elastase; experiment: gp91phox surface expression of healthy PMN treated with plasma from cirrhotic patients, with NEI; details: 12 H, 25% plasma, 100 μM
Description: as §2, §3

- fMLP-induced depletion of gp91phox and p22phox (neutrophil elastase [1]): prevented
- gp91phox degradation by cell-free degranulation supernatant (neutrophil elastase [2]): blocked gp91phox degradation
- inhibition of NOX2 activity by patients' plasma (elastase [3]): prevented the inhibitory effects
- decrease of gp91phox positive cells and surface expression caused by patients' plasma (elastase [4]): prevented
SMILES: COC(=O)CCC(=O)N[C@@H](C)C(=O)N[C@@H](C)C(=O)N1CCC[C@H]1C(=O)N[C@H](C(=O)CCl)C(C)C [NEI, MeOSuc-AAPV-CMK] (MeOSuc-AAPV-CH2Cl)
